According to patent publication US20230015478A1, “GLP-1 RECEPTOR AGONISTS HAVING IMPROVED PHARMACOLOGICAL AND DRUG DELIVERY PROPERTIES” (priority 2021, published 2023):
Read-outs that look alike come from different tables or passages of the source. One block for each compound: values may come before it. Numbered stars: 1 amine (or outer) side, 2 acyl side, 3 side chain; on linkers, the order of the positions; unused ones are H or OH. Square brackets hold non-standard residues; d marks the D form. Side chains are listed from the residue outwards. Peptide text beside a SMILES is read from it. * marks the point of attachment. Phe(2-NO2) = N[C@@H](Cc1ccccc1[N+](=O)[O-])C(=O)O; Bip = N[C@@H](Cc1ccc(-c2ccccc2)cc1)C(=O)O; C18 diacid = O=C(O)CCCCCCCCCCCCCCCCC(=O)*; αMePhe(2-F) = C[C@](N)(Cc1ccccc1F)C(=O)O; γGlu = O=C(O)[C@H](CCC(=O)[*:2])N[*:1]; Phe(2-F) = N[C@@H](Cc1ccccc1F)C(=O)O; AEEA = NCCOCCOCC(=O)O; Aib = CC(C)(N)C(=O)O

Target: T1, hGLP1 receptor (Homo sapiens, UniProt P43220)
T1 construct: expressed in transfected cells; host or cells: HEK (human embryonic kidney) cells co-expressing hGLP1 receptor and CRE-Luciferase
T1 sequence (P43220 24-463): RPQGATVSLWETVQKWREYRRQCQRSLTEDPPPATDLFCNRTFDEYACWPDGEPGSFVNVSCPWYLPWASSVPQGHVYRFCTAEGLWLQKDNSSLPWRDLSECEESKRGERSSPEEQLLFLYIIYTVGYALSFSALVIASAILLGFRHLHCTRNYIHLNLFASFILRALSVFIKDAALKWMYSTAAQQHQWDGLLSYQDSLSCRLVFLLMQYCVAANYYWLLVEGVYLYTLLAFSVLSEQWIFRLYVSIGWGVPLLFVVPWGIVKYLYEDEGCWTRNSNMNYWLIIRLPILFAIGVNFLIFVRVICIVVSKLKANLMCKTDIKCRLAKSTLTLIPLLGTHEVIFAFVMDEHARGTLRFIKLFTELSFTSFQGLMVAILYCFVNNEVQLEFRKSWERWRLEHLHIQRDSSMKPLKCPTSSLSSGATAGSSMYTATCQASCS
Assay: cAMP HTRF agonist assay in HEK cells co-expressing hGLP1 receptor and CRE-Luciferase
Format: cell-based
In short: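 HEK cells co-expressing hGLP1R and CRE-luciferase, 1000 cells/well in DPBS with 500 μM IBMX, exposed to peptides or exendin-4 reference for 30 min; 11-point 1:3 series from top 1.0 μM. cAMP measured by HTRF (665/615 nm) after 1 h at room temperature; EC50 from 4-parameter logistic fit.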

[1] = cAMP EC50, nM (0.1% albumin), Table 6, 0.1% albumin

Compound: C[C@@H](O)[C@H](NC(=O)CNC(=O)[C@H](CCC(=O)O)NC(=O)C(C)(C)NC(=O)[C@@H](N)Cc1c[nH]cn1)C(=O)N[C@@H](Cc1ccccc1[N+](=O)[O-])C(=O)N[C@H](C(=O)N[C@@H](CO)C(=O)N[C@@H](CC(=O)O)C(=O)N[C@@H](Cc1ccc(-c2ccccc2)cc1)C(=O)N[C@@H](Cc1ccc(-c2ccccc2)cc1)C(N)=O)[C@@H](C)O [3-5, H2N-His-Aib-Glu-Gly-Thr-Phe(2-NO2)-Thr-Ser-Asp-Bip-Bip-C(O)NH2] (H-H[Aib]EGT[Phe(2-NO2)]TSD[Bip][Bip]-NH2)
- EC50 (cAMP EC50, nM (0.1% albumin), Table 1, 0.1% albumin): 6.67 nM

Compound: C[C@@H](O)[C@H](NC(=O)CNC(=O)[C@H](CCC(=O)O)NC(=O)C(C)(C)NC(=O)[C@@H](N)Cc1c[nH]cn1)C(=O)N[C@@](C)(Cc1ccccc1F)C(=O)NC(C)(C)C(=O)N[C@@H](CO)C(=O)N[C@@H](CC(=O)O)C(=O)N[C@@H](Cc1ccc(-c2ccccc2)cc1)C(=O)N[C@@H](Cc1ccc(-c2ccccc2)cc1)C(N)=O [3-35, H2N-His-Aib-Glu-Gly-Thr-αMePhe(2-F)-Aib-Ser-Asp-Bip-Bip-C(O)NH2] (H-H[Aib]EGT[αMePhe(2-F)][Aib]SD[Bip][Bip]-NH2)
- EC50 (cAMP EC50, nM (0.1% albumin), Table 3, 0.1% albumin): 91.4 nM

Compound: C[C@H](NC(=O)[C@H](CCC(=O)O)NC(=O)C(C)(C)NC(=O)[C@@H](N)Cc1c[nH]cn1)C(=O)N[C@H](C(=O)N[C@@H](Cc1ccccc1F)C(=O)N[C@H](C(=O)N[C@@H](CO)C(=O)N[C@@H](CC(=O)O)C(=O)N[C@@H](Cc1ccc(-c2ccccc2)cc1)C(=O)N[C@@H](Cc1ccc(-c2ccccc2)cc1)C(N)=O)[C@@H](C)O)[C@@H](C)O [3-23, H2N-His-Aib-Glu-Ala-Thr-Phe(2F)-Thr-Ser-Asp-Bip-Bip-C(O)NH2] (H-H[Aib]EAT[Phe(2-F)]TSD[Bip][Bip]-NH2)
- EC50 (Table 2, cell marked (0% albumin), read-out: cAMP EC50, nM (0% albumin)): 347 nM

Results, then the compound that gave them:

- EC50 [1]: 31.2 nM
Compound: C[C@@H](O)[C@H](NC(=O)CNC(=O)[C@H](CCC(=O)O)NC(=O)C(C)(C)NC(=O)[C@@H](N)Cc1c[nH]cn1)C(=O)N[C@@](C)(Cc1ccccc1F)C(=O)N[C@H](C(=O)N[C@@H](CO)C(=O)N[C@@H](CC(=O)O)C(=O)N[C@@H](Cc1ccc(-c2ccccc2)cc1)C(=O)N[C@@H](Cc1ccc(-c2ccccc2)cc1)C(=O)NCCOCCOCC(=O)NCCOCCOCC(=O)NCCOCCOCC(=O)N[C@@H](CCCCN)C(N)=O)[C@@H](C)O [4-31, H2N-His-Aib-Glu-Gly-Thr-α-MePhe(2F)-Thr-Ser-Asp-Bip-Bip-C(O)(AEEA)3-Lys-NH2] (H-H[Aib]EGT[αMePhe(2-F)]TSD[Bip][Bip][AEEA][AEEA][AEEA]K-NH2)

- EC50 (cAMP EC50, nM (0.1% albumin), Table 4, 0.1% albumin): > 1000 nM
Compound: C[C@@H](O)[C@H](NC(=O)CNC(=O)[C@H](CCC(=O)O)NC(=O)C1(C)CCCN1C(=O)[C@@H](N)Cc1c[nH]cn1)C(=O)NC(C)(Cc1ccccc1F)C(=O)N[C@H](C(=O)N[C@@H](CO)C(=O)N[C@@H](CC(=O)O)C(=O)NC(C)(C)C(=O)N[C@@H](Cc1ccc(-c2ccccc2)cc1)C(N)=O)[C@@H](C)O (stereo partly drawn) [3-60, H2N-His-α-MePro-Glu-Gly-Thr-α-MePhe(2-F)-Thr-Ser-Asp-Aib-Bip-C(O)NH2]

- EC50 [1]: 9.7 nM
Compound: C[C@@H](O)[C@H](NC(=O)CNC(=O)[C@H](CCC(=O)O)NC(=O)C(C)(C)NC(=O)[C@@H](N)Cc1c[nH]cn1)C(=O)N[C@@](C)(Cc1ccccc1F)C(=O)N[C@H](C(=O)N[C@@H](CO)C(=O)N[C@@H](CC(=O)O)C(=O)N[C@@H](Cc1ccc(-c2ccccc2)cc1)C(=O)N[C@@H](Cc1ccc(-c2ccccc2)cc1)C(=O)N[C@@H](CCCCNC(=O)COCCOCCNC(=O)CC[C@H](NC(=O)CCCCCCCCCCCCCCCCC(=O)O)C(=O)O)C(N)=O)[C@@H](C)O [4-48, H2N-His-Aib-Glu-Gly-Thr-α-MePhe(2-F)-Thr-Ser-Asp-Bip-Bip-C(0)NH-RY10] (H-H[Aib]EGT[αMePhe(2-F)]TSD[Bip][Bip]K([AEEA-γGlu-C18 diacid])-NH2)

- EC50 (read-out: cAMP EC50, nM (0.1% albumin), Table 6, 0.1% albumin): 0.008 nM
Compound: H2N-His-α-MePro-Glu-Gly-Thr-α-MePhe(2-F)-Thr-Ser-Asp-FN3(C18 acid)-Bib-C(O)NH2 [4-71]
